# From patent US20260335398A1, “METHODS FOR TREATING PANCREATIC CANCER WITH A COMBINATION OF DES-METHYL PATEAMINE A AND A CLASS I HDAC INHIBITOR” (Baylor University, priority 2023, published 2026)
# Key:
# Assay type in all cases: cell-based
# KLM and MIA PaCa-2 cells = assay: Nascent RNA synthesis by EU labeling (FIG. 9B); details: total 18 h, 5-EU incorporation
# Method: FIG. 9B left panel compares EU-labeled nascent RNA and (Hoechst counterstain) in KLM cells treated with combination and single agents. Scale bar: 1 μm. FIG. 9B right panels present quantification of fluorescence intensities of nascent RNA synthesis in both KLM and MIA PaCa-2 cell lines. Statistical significance was determined by one-way ANOVA using Tukey multiple comparison's test, ****p value<0.0001, **p value<0.0002, **p value<0.002.
# This apparent hypertranscription observed with the combination, was confirmed by the increase in nascent RNA output above the level of normal cells, following treatment for a total of 18 hours (i.e., 6-hour romidepsin followed by 12-hour washout with or without 2 nM DMPatA), quantified using incorporation of the modified RNA precursor 5-EU. […] Because HDAC inhibitors cause histone hyperacetylation and having observed the increase in gene expression following treatment with the combination, the impact of the combination on histone acetylation was assessed.
# To detect changes in the global RNA transcription we used the Click-iT RNA Alexa Fluor 594 Imaging Kit (Invitrogen, #C10330). Briefly, cells were cultured in complete media and pulsed for 60 min with alkyne-modified nucleoside, 5-ethynyl uridine (EU) at a final concentration of 1 mM. […]
# MIA PaCa-2 and KLM cells = assay: RNA-seq gene expression analysis (FIG. 9A)
# Method: Plots show a significant increase in the overall gene expression in the cells treated with the combination. Cells treated for a total of 18 h (i.e., 6-hour romidepsin followed by 12-hour incubation with 2 nM DMPatA (combo) or without (Romi alone)).
# To gain further insight into the effects of the combination treatment gene expression was profiled in MIA PaCa-2 and KLM cells treated with vehicle, the single agents, or the combination for a total of 18 h (i.e., 6-hour romidepsin treatment followed by 12-hour washout with 2 nM DMPatA or without), probing whether alterations observed following combination treatment could be explained by changes in gene expression.
# Total RNA was extracted using RNeasy mini kit (Qiagen) from cells collected after 18 hours (6 hours romidepsin (15 nM)+12 hours washout with or without DMPatA (2 nM)) incubation with or without drugs. RNA quantitation and quality were assessed by the Agilent Bioanalyzer 2100 at the Molecular Pathology Shared Resource of the Herbert Irving Comprehensive Cancer Center at Columbia University (mBank). RNA library preparation and sequencing was performed at Columbia University's Sulzberger Genome Center. Briefly, poly-A pull-down was used to enrich mRNAs from total RNA samples, followed by library construction using Illumina TruSeq chemistry. Libraries were then sequenced using Illumina NovaSeq 6000. For the DESeq2 (v 1.40.2) analysis the data were imported with tximport in DESeq2 and a dds object was generated. Variance stabilizing transformation was used on the object and the output was used for the heatmap and PCA plots. Abundance of transcripts was estimated by pseudoalignment using kallisto, and downstream analysis was performed using R (v4.3.1) and the indicated packages. […] Differentially expressed genes were determined using linear regression method (limma v3.56.2), and genes with |log 2FC|≥1 and adjusted p-value <0.05 were plotted accordingly on volcano plots and heatmap (ggplot2 v3.5.0 and ComplexHeatmap v2.16.0). […]
# H3K9ac = assay: Immunoblot of H3K9ac protein levels (FIGS. 5A-5C, 9C); details: romidepsin 15 nM 6 h; with or without DMPatA 2 nM
# Method: FIGS. 5A-5C are images of immunoblots of protein levels from whole cell extracts of MIA PaCa-2 cell line following treatment with representative combinations Class 1 HDAC inhibitors and DMPatA, DMPatA alone, and HDAC inhibitor alone. FIG. 5A compares immunoblots of H3K9ac (top panel) and GAPDH (bottom panel) protein levels from whole cell extracts of MIA PaCa-2 cells following treatment with the combination of romidepsin and DMPatA and single drugs. Romidepsin treatment was for 6 hours. FIG. 5B compares immunoblots of H3K9ac protein levels from whole cell extracts of MIA PaCa-2 and KLM cells untreated or following treatment with the combination of entinostat and DMPatA and single drugs. Treatments were for various timepoints ranging from 6 to 24 hours. […]
# This apparent hypertranscription observed with the combination, was confirmed by the increase in nascent RNA output above the level of normal cells, following treatment for a total of 18 hours (i.e., 6-hour romidepsin followed by 12-hour washout with or without 2 nM DMPatA), quantified using incorporation of the modified RNA precursor 5-EU. […] Because HDAC inhibitors cause histone hyperacetylation and having observed the increase in gene expression following treatment with the combination, the impact of the combination on histone acetylation was assessed. […]
compound,measurement,setting,value
C/C=C1\NC(=O)[C@H]2CSSCC/C=C/[C@H](CC(=O)N[C@H](C(C)C)C(=O)N2)OC(=O)[C@H](C(C)C)NC1=O [romidepsin],nascent RNA (mRNA) synthesis,KLM and MIA PaCa-2 cells,increase in RNA synthesis
same,change in gene expression,"MIA PaCa-2 and KLM cells; romidepsin 15 nM 6 h, with or without DMPatA 2 nM",only a modest increase in gene expression
same,number of differentially expressed genes (DEGs),"MIA PaCa-2 and KLM cells; total 18 h (6 h romidepsin 15 nM + 12 h with/without DMPatA 2 nM), |log2FC|≥1, adjusted p<0.05",1551 DEGs
same,H3K9 acetylation,H3K9ac,only a small effect
